Results reported in ChEMBL document CHEMBL1159013, “Additional bioactive compounds and trilobacin, a novel highly cytotoxic acetogenin, from the bark of Asimina triloba” (J Nat Prod, 1992).
Values after ≈ are worked out from the molar mass of the structure shown.

Key:
HT-29 [1] = test: Cytotoxicity against human HT-29 cells after 7 days; assay type: functional; settings: for EC50: Homo sapiens, HT-29, 168 h, read-out: ED50 (the source's name)
[2] = Toxicity against brine shrimp larvae; assay type: organism-based; settings: artemia, in vivo
A549 [3] = test: Cytotoxicity against human A549 cells after 7 days; assay type: functional; settings: for EC50: Homo sapiens, A549, 168 h, read-out: ED50 (the source's name)
MCF7 = test: Cytotoxicity against human MCF7 cells after 7 days; assay type: functional; settings: MCF7, 168 h, read-out: ED50 (the source's name)
[4] = Growth inhibition of human RXF631 cells after 3 days; assay type: functional; settings: RXF 631, 72 h
SNB-78 = test: Growth inhibition of human SNB78 cells after 3 days; assay type: functional; settings: SNB-78, 72 h
KM-20L2 = test: Growth inhibition of human KM20L2 cells after 3 days; assay type: functional; settings: KM-20L2, 72 h
DLD-1 = test: Growth inhibition of human DLD1 cells after 3 days; assay type: functional; settings: DLD-1, 72 h
M19-MEL = test: Growth inhibition of human M19-MEL cells after 3 days; assay type: functional; settings: 72 h
MOLT-4 = test: Growth inhibition of human MOLT4 cells after 3 days; assay type: functional; settings: MOLT-4, 72 h
M14 = test: Growth inhibition of human M14 cells after 3 days; assay type: functional; settings: M14, 72 h
HCC 2998 = test: Growth inhibition of human HCC2998 cells after 3 days; assay type: functional; settings: HCC 2998, 72 h
A498 = test: Growth inhibition of human A498 cells after 3 days; assay type: functional; settings: A498, 72 h
[5] = Growth inhibition of human LXFL529 cells after 3 days; assay type: functional; settings: LXFL 529, 72 h
CCRF-CEM = test: Growth inhibition of human CCRF-CEM cells after 3 days; assay type: functional; settings: 72 h
SK-MEL-2 = test: Growth inhibition of human SK-MEL-2 cells after 3 days; assay type: functional; settings: SK-MEL-2, 72 h
OVCAR-5 = test: Growth inhibition of human OVCAR5 cells after 3 days; assay type: functional; settings: OVCAR-5, 72 h
786-0 = test: Growth inhibition of human 786-0 cells after 3 days; assay type: functional; settings: 786-0, 72 h
LOX IMVI = test: Growth inhibition of human LOXIMVI cells after 3 days; assay type: functional; settings: 72 h
NCI-H322M = test: Growth inhibition of human NCI-H322M cells after 3 days; assay type: functional; settings: 72 h
SNB-75 = test: Growth inhibition of human SNB75 cells after 3 days; assay type: functional; settings: SNB-75, 72 h
Malme-3M = test: Growth inhibition of human MALME-3M cells after 3 days; assay type: functional; settings: 72 h
A549 [6] = test: Growth inhibition of human A549 cells after 3 days; assay type: functional; settings: A549, 72 h
EKVX = test: Growth inhibition of human EKVX cells after 3 days; assay type: functional; settings: 72 h
IGROV-1 = test: Growth inhibition of human IGROV1 cells after 3 days; assay type: functional; settings: IGROV-1, 72 h
XF498 = test: Growth inhibition of human XF498 cells after 3 days; assay type: functional; settings: XF498, 72 h
UACC-62 = test: Growth inhibition of human UACC62 cells after 3 days; assay type: functional; settings: UACC-62, 72 h
TK-10 = test: Growth inhibition of human TK10 cells after 3 days; assay type: functional; settings: TK-10, 72 h
SW-620 = test: Growth inhibition of human SW620 cells after 3 days; assay type: functional; settings: SW-620, 72 h
SN12C = test: Growth inhibition of human SN12C cells after 3 days; assay type: functional; settings: 72 h
DMS-273 = test: Growth inhibition of human DMS273 cells after 3 days; assay type: functional; settings: DMS-273, 72 h
SF-539 = test: Growth inhibition of human SF539 cells after 3 days; assay type: functional; settings: SF-539, 72 h
COLO 205 = test: Growth inhibition of human COLO205 cells after 3 days; assay type: functional; settings: COLO 205, 72 h
U-251 = test: Growth inhibition of human U251 cells after 3 days; assay type: functional; settings: U-251, 72 h
NCI-H460 = test: Growth inhibition of human NCI-H460 cells after 3 days; assay type: functional; settings: NCI-H460, 72 h
SK-OV-3 = test: Growth inhibition of human SKOV3 cells after 3 days; assay type: functional; settings: SK-OV-3, 72 h
SK-MEL-28 = test: Growth inhibition of human SK-MEL-28 cells after 3 days; assay type: functional; settings: SK-MEL-28, 72 h
OVCAR-8 = test: Growth inhibition of human OVCAR8 cells after 3 days; assay type: functional; settings: OVCAR-8, 72 h
OVCAR-3 = test: Growth inhibition of human OVCAR-3 cells after 3 days; assay type: functional; settings: OVCAR-3, 72 h
HOP-92 = test: Growth inhibition of human HOP92 cells after 3 days; assay type: functional; settings: HOP-92, 72 h
SR = test: Growth inhibition of human SR cells after 3 days; assay type: functional; settings: 72 h
HT-29 [7] = test: Growth inhibition of human HT-29 cells after 3 days; assay type: functional; settings: HT-29, 72 h
SF-268 = test: Growth inhibition of human SF268 cells after 3 days; assay type: functional; settings: SF-268, 72 h
HOP-62 = test: Growth inhibition of human HOP62 cells after 3 days; assay type: functional; settings: HOP-62, 72 h
CAKI-1 = test: Growth inhibition of human Caki1 cells after 3 days; assay type: functional; settings: CAKI-1, 72 h

`O=C(/C=C/c1ccc(O)cc1)NCCc1ccc(O)cc1` [N-P-COUMAROYL TYRAMINE] gave an EC50 (HT-29 [1]) of 674 ng/mL (≈ 2380 nM), an LC50 [2] of 6700 ng/mL (≈ 23600 nM) and an EC50 (A549 [3]) of 3240 ng/mL (≈ 11400 nM). For the same compound, the EC50 (MCF7) was 716 ng/mL (≈ 2530 nM).

With `COc1cc([C@H]2OC[C@H]3[C@@H]2CO[C@@H]3c2cc(OC)c(O)c(OC)c2)cc(OC)c1O` [SYRINGARESINOL] the EC50 (HT-29 [1]) was 15500 ng/mL (≈ 37000 nM), the LC50 [2] was 13600 ng/mL (≈ 32500 nM) and the EC50 (A549 [3]) was 14900 ng/mL (≈ 35600 nM). For the same compound, the EC50 (MCF7) was 3690 ng/mL (≈ 8820 nM).

Compound `CCCCCCCCCC[C@@H](O)[C@H]1CC[C@@H]([C@H]2CC[C@H]([C@H](O)CCCCCCCCCC[C@@H](O)CC3=C[C@H](C)OC3=O)O2)O1` [TRILOBACIN] has a GI50 [4] of 1.8 µM, a GI50 (SNB-78) of 2.05 µM and a GI50 (KM-20L2) of 0.00375 ng/mL (≈ 0.00602 nM). It also gave a GI50 (DLD-1) of 0.0027 ng/mL (≈ 0.00433 nM), an ED50 (HT-29 [1]) of under 1 ×10⁻¹⁵ ug/ml and a GI50 (M19-MEL) of 0.00263 ng/mL (≈ 0.00422 nM). It also gave a GI50 (MOLT-4) of 0.00116 ng/mL (≈ 0.00186 nM), a GI50 (M14) of 0.0104 ng/mL (≈ 0.0167 nM) and a GI50 (HCC 2998) of 0.00292 ng/mL (≈ 0.00469 nM). For the same compound, the GI50 (A498) was 0.00686 ng/mL (≈ 0.011 nM), the GI50 [5] was 0.00217 ng/mL (≈ 0.00348 nM) and the GI50 (CCRF-CEM) was 0.0017 ng/mL (≈ 0.00273 nM). For the same compound, the GI50 (SK-MEL-2) was 0.00228 ng/mL (≈ 0.00366 nM), the GI50 (OVCAR-5) was 4.33 µM and the GI50 (786-0) was 0.0022 ng/mL (≈ 0.00353 nM). For the same compound, the GI50 (LOX IMVI) was 0.0012 ng/mL (≈ 0.00193 nM), the GI50 (NCI-H322M) was 4.06 µM and the GI50 (SNB-75) was 0.00319 ng/mL (≈ 0.00512 nM). It also gave a GI50 (Malme-3M) of 0.00144 ng/mL (≈ 0.00231 nM), a GI50 (A549 [6]) of 0.00164 ng/mL (≈ 0.00263 nM) and a GI50 (EKVX) of 0.002 ng/mL (≈ 0.00321 nM). The GI50 (IGROV-1) was 0.00481 ng/mL (≈ 0.00772 nM), the GI50 (XF498) was 0.00203 ng/mL (≈ 0.00326 nM) and the GI50 (UACC-62) was 2.67 µM. For the same compound, the GI50 (TK-10) was 7 µM, the LC50 [2] was 8.7 ng/mL (≈ 14 nM) and the ED50 (A549 [3]) was 8.02 ×10⁻⁴ ug/ml. For the same compound, the GI50 (SW-620) was 2.64 µM, the GI50 (SN12C) was 1.64 µM and the GI50 (DMS-273) was 0.00177 ng/mL (≈ 0.00284 nM). The GI50 (SF-539) was 0.00138 ng/mL (≈ 0.00222 nM), the GI50 (COLO 205) was 0.00349 ng/mL (≈ 0.0056 nM) and the GI50 (U-251) was 4.33 µM. The GI50 (NCI-H460) was 0.00293 ng/mL (≈ 0.0047 nM), the GI50 (SK-OV-3) was 8.2 µM and the GI50 (SK-MEL-28) was 0.00201 ng/mL (≈ 0.00323 nM). For the same compound, the EC50 (MCF7) was 329 ng/mL (≈ 528 nM), the GI50 (OVCAR-8) was 0.00293 ng/mL (≈ 0.0047 nM) and the GI50 (OVCAR-3) was 0.00109 ng/mL (≈ 0.00175 nM). For the same compound, the GI50 (HOP-92) was 0.00276 ng/mL (≈ 0.00443 nM), the GI50 (SR) was 1.09 µM and the GI50 (HT-29 [7]) was 0.00216 ng/mL (≈ 0.00347 nM). It also gave a GI50 (SF-268) of 1.7 µM, a GI50 (HOP-62) of 0.00234 ng/mL (≈ 0.00376 nM) and a GI50 (CAKI-1) of 0.00883 ng/mL (≈ 0.0142 nM).

`COc1cc(/C=C/C(=O)NCCc2ccc(O)cc2)ccc1O` [N-TRANS-FERULOYL TYRAMINE] showed an EC50 (HT-29 [1]) of 23600 ng/mL (≈ 75300 nM), an LC50 [2] of 6700 ng/mL (≈ 21400 nM) and an EC50 (A549 [3]) of 13400 ng/mL (≈ 42600 nM). It also gave an EC50 (MCF7) of 4760 ng/mL (≈ 15200 nM).
